Results as given in patent US20240116985A1, “STAPLED PEPTIDES AND METHODS THEREOF” (priority 2020, published 2024).

Target: T1, full-length beta-Catenin (Uniprot ID P35222) (Homo sapiens, UniProt P35222)
T1 construct: 10 nM full-length beta-Catenin (Uniprot ID P35222)
T1 sequence (P35222 1-781): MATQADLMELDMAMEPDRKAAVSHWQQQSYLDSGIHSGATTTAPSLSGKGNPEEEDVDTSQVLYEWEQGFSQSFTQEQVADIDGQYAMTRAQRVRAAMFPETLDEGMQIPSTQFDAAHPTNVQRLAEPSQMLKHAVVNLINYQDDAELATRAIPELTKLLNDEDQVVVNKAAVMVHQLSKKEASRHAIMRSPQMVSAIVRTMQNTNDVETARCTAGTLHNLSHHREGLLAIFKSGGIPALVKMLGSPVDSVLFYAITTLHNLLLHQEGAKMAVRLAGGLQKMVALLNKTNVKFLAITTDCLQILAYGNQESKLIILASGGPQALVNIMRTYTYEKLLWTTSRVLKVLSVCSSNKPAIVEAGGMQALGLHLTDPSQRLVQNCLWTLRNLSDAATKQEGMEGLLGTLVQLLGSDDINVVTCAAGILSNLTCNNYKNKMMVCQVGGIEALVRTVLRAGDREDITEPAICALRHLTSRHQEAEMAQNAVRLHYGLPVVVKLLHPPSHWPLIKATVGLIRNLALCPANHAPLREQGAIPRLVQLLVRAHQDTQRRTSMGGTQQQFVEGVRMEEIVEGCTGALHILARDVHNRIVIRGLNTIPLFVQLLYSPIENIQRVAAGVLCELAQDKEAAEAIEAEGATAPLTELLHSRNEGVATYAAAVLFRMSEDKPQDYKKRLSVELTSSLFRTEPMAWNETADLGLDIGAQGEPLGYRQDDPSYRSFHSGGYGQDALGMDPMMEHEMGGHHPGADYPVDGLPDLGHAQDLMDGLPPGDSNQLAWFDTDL
Assay: Fluorescence polarization IC50 (beta-catenin / 5FAM-TCF4 10-53 competition)
Format: binding
Conditions: fluorescence polarization; read-out: beta-Catenin FP IC50

| SMILES | IC50 [µM] |
| --- | --- |
| CC(=O)N1CCC[C@]12CC=CCCCC1(CCCC=CCCCOC(=O)N3CC[C@@](C(=O)N[C@@H](Cc4ccsc4)C(=O)N[C@@H](Cc4csc5ccccc45)C(=O)N[C@@H](CCC(N)=O)C(N)=O)(C3)NC(=O)[C@H](CC(N)=O)NC(=O)[C@H](Cc3ccccc3)NC(=O)[C@H](C)NC(=O)[C@H](C)NC(=O)[C@H](CC(N)=O)NC(=O)[C@H](CC(C)C)NC1=O)NC(=O)[C@H](CC(C)(C)C)NC(=O)[C@H](CC(=O)O)NC2=O (stereo partly drawn) [I-1563, Ac-PL3-Asp-Npg-B5-Leu-Asn-Ala-Ala-Phe-Asn-PyrS2-3Thi-BztA-Gln-NH2] | 2.85 |
| CC(=O)N1CCC[C@]12CC=CCCCC1(CCCC=CCCCOC(=O)N3CC[C@@](C(=O)N[C@@H](Cc4ccsc4)C(=O)N[C@@H](Cc4csc5ccccc45)C(=O)N[C@@H](CCC(N)=O)C(N)=O)(C3)NC(=O)[C@H](CC(N)=O)NC(=O)[C@H](Cc3ccccc3)NC(=O)[C@H](C)NC(=O)[C@H](C)NC(=O)[C@H](Cc3ccc(O)cc3)NC(=O)[C@H](CC(N)=O)NC1=O)NC(=O)[C@H](CC(C)(C)C)NC(=O)[C@H](CC(=O)O)NC2=O (stereo partly drawn) [I-1568, Ac-PL3-Asp-Npg-B5-Asn-Tyr-Ala-Ala-Phe-Asn-PyrS2-3Thi-BztA-Gln-NH2] | 7.18 |
| CC(=O)N1CCC[C@]12CC=CCCCC1(CCCC=CCCCOC(=O)N3CC[C@@](C(=O)N[C@@H](Cc4ccsc4)C(=O)N[C@@H](Cc4csc5ccccc45)C(=O)N[C@@H](CCC(N)=O)C(N)=O)(C3)NC(=O)[C@H](CC(N)=O)NC(=O)[C@H](Cc3ccccc3)NC(=O)[C@H](C)NC(=O)[C@H](C)NC(=O)[C@H](Cc3ccc(O)cc3)NC(=O)[C@H](CC(N)=O)NC1=O)NC(=O)[C@H](CC(C)(C)C)NC(=O)[C@H](CC(=O)O)NC2=O (stereo partly drawn) [I-1569, Ac-PL3-Asp-Npg-B5-Asn-Tyr-Ala-Ala-Phe-Asn-PyrS2-3Thi-BztA-Gln-NH2] | 2.66 |
| CC(=O)N1CCC[C@]12CC=CCCCC1(CCCC=CCCCOC(=O)N3CC[C@@](C(=O)N[C@@H](Cc4ccsc4)C(=O)N[C@@H](Cc4csc5ccccc45)C(=O)N[C@@H](CCC(N)=O)C(N)=O)(C3)NC(=O)[C@H](CC(N)=O)NC(=O)[C@H](Cc3ccccc3)NC(=O)[C@H](C)NC(=O)[C@H](C)NC(=O)[C@H](CC(C)C)NC(=O)[C@H](CC(N)=O)NC1=O)NC(=O)[C@H](CC(C)(C)C)NC(=O)[C@H](CC(=O)O)NC2=O (stereo partly drawn) [I-1570, Ac-PL3-Asp-Npg-B5-Asn-Leu-Ala-Ala-Phe-Asn-PyrS2-3Thi-BztA-Gln-NH2] | 1.34 |
| CC(=O)N1CC2CC1C(=O)N[C@@H](CC(=O)O)C(=O)N[C@@H](CC(C)(C)C)C(=O)NC1(CCCC=CCCCOC(=O)N3CC[C@@](C(=O)N[C@@H](Cc4ccsc4)C(=O)N[C@@H](Cc4csc5ccccc45)C(=O)N[C@@H](CCC(N)=O)C(N)=O)(C3)NC(=O)[C@H](CC(N)=O)NC(=O)[C@H](Cc3ccccc3)NC(=O)[C@H](C)NC(=O)[C@H](C)NC(=O)[C@H](CC(=O)O)NC(=O)[C@H](CC(=O)O)NC1=O)CCCC=CCC(=O)O2 (stereo partly drawn) [I-1575, Ac-HypEs4-Asp-Npg-B5-Asp-Asp-Ala-Ala-Phe-Asn-PyrS2-3Thi-BztA-Gln-NH2] | 0.079 |
| CC(=O)N1CCC[C@]12CC=CCCCC1(CCCC=CCCCOC(=O)N3CC[C@@](C(=O)N[C@@H](Cc4ccccc4)C(=O)N[C@@H](Cc4csc5ccccc45)C(=O)N[C@@H](CCC(N)=O)C(N)=O)(C3)NC(=O)[C@H](CC(C)C)NC(=O)[C@H](Cc3ccccc3)NC(=O)[C@H](C)NC(=O)[C@H](CCCCNC(C)C)NC(=O)[C@H]([C@@H](C)O)NC(=O)[C@H](CC(=O)O)NC1=O)NC(=O)[C@H](Cc1ccccc1)NC(=O)[C@H](CC(N)=O)NC2=O (stereo partly drawn) [I-1580, Ac-PL3-Asn-Phe-B5-Asp-Thr-iPrLys-Ala-Phe-Leu-PyrS2-Phe-BztA-Gln-NH2] | 1.43 |
| CC(=O)N1CCC[C@]12CC=CCCCC1(CCCC=CCCCOC(=O)N3CC[C@@](C(=O)N[C@@H](Cc4ccccc4)C(=O)N[C@@H](Cc4csc5ccccc45)C(=O)N[C@@H](CCC(N)=O)C(N)=O)(C3)NC(=O)[C@H](CC(C)C)NC(=O)[C@H](Cc3ccccc3)NC(=O)[C@H](C)NC(=O)[C@H](CCCCNC(C)C)NC(=O)[C@H]([C@@H](C)O)NC(=O)[C@H](CC(=O)O)NC1=O)NC(=O)[C@H](CC(C)C)NC(=O)[C@H](CC(N)=O)NC2=O (stereo partly drawn) [I-1582, Ac-PL3-Asn-Leu-B5-Asp-Thr-iPrLys-Ala-Phe-Leu-PyrS2-Phe-BztA-Gln-NH2] | 1.22 |

Second part, the molecule after the results:

| IC50 [µM] | SMILES |
| --- | --- |
| 3.42 | CC(=O)N1CCC[C@]12CC=CCCCC1(CCCC=CCCCOC(=O)N3CC[C@@](C(=O)N[C@@H](Cc4ccccc4)C(=O)N[C@@H](Cc4csc5ccccc45)C(=O)N[C@@H](CCC(N)=O)C(N)=O)(C3)NC(=O)[C@H](CC(C)C)NC(=O)[C@H](Cc3ccccc3)NC(=O)[C@H](C)NC(=O)[C@H](CCCCNC(C)C)NC(=O)[C@H]([C@@H](C)O)NC(=O)[C@H](CC(=O)O)NC1=O)NC(=O)[C@H](CO)NC(=O)[C@H](CC(N)=O)NC2=O (stereo partly drawn) [I-1583, Ac-PL3-Asn-Ser-B5-Asp-Thr-iPrLys-Ala-Phe-Leu-PyrS2-Phe-BztA-Gln-NH2] |
| 2.44 | CC(=O)N1CCC[C@]12CC=CCCCC1(CCCC=CCCCOC(=O)N3CC[C@@](C(=O)N[C@@H](Cc4ccccc4)C(=O)N[C@@H](Cc4csc5ccccc45)C(=O)N[C@@H](CCC(N)=O)C(N)=O)(C3)NC(=O)[C@H](CC(C)C)NC(=O)[C@H](Cc3ccccc3)NC(=O)[C@H](C)NC(=O)[C@H](CCCCNC(C)C)NC(=O)[C@H]([C@@H](C)O)NC(=O)[C@H](CC(=O)O)NC1=O)NC(=O)[C@H](CCC(N)=O)NC(=O)[C@H](CC(N)=O)NC2=O (stereo partly drawn) [I-1584, Ac-PL3-Asn-Gln-B5-Asp-Thr-iPrLys-Ala-Phe-Leu-PyrS2-Phe-BztA-Gln-NH2] |
| 3.11 | CC(=O)N1CCC[C@]12CC=CCCCC1(CCCC=CCCCOC(=O)N3CC[C@@](C(=O)N[C@@H](Cc4ccccc4)C(=O)N[C@@H](Cc4csc5ccccc45)C(=O)N[C@@H](CCC(N)=O)C(N)=O)(C3)NC(=O)[C@H](CC(C)C)NC(=O)[C@H](Cc3ccccc3)NC(=O)[C@H](C)NC(=O)[C@H](CCCCNC(C)C)NC(=O)[C@H]([C@@H](C)O)NC(=O)[C@H](CC(=O)O)NC1=O)NC(=O)[C@H](CCCCNC(C)C)NC(=O)[C@H](CC(N)=O)NC2=O (stereo partly drawn) [I-1591, Ac-PL3-Asn-iPrLys-B5-Asp-Thr-iPrLys-Ala-Phe-Leu-PyrS2-Phe-BztA-Gln-NH2] |
| 2.85 | CC(=O)N1CCC[C@]12CC=CCCCC1(CCCC=CCCCOC(=O)N3CC[C@@](C(=O)N[C@@H](Cc4ccccc4)C(=O)N[C@@H](Cc4csc5ccccc45)C(=O)N[C@@H](CCC(N)=O)C(N)=O)(C3)NC(=O)[C@H](CC(C)C)NC(=O)[C@H](Cc3ccccc3)NC(=O)[C@H](C)NC(=O)[C@H](CCCCNC(C)C)NC(=O)[C@H](Cc3cccc(C(N)=O)c3)NC(=O)[C@H](CC(=O)O)NC1=O)NC(=O)[C@H](CC(C)(C)C)NC(=O)[C@H](CC(N)=O)NC2=O (stereo partly drawn) [I-1592, Ac-PL3-Asn-Npg-B5-Asp-3cbmf-iPrLys-Ala-Phe-Leu-PyrS2-Phe-BztA-Gln-NH2] |
| 6.99 | CC(=O)N1CCC[C@]12CC=CCCCC1(CCCC=CCCCOC(=O)N3CC[C@@](C(=O)N[C@@H](Cc4ccccc4)C(=O)N[C@@H](Cc4csc5ccccc45)C(=O)N[C@@H](CCC(N)=O)C(N)=O)(C3)NC(=O)[C@H](CC(C)C)NC(=O)[C@H](CO)NC(=O)[C@H](C)NC(=O)[C@H](CCCCNC(C)C)NC(=O)[C@H]([C@@H](C)O)NC(=O)[C@H](CC(=O)O)NC1=O)NC(=O)[C@H](CC(C)(C)C)NC(=O)[C@H](CC(N)=O)NC2=O (stereo partly drawn) [I-1597, Ac-PL3-Asn-Npg-B5-Asp-Thr-iPrLys-Ala-Ser-Leu-PyrS2-Phe-BztA-Gln-NH2] |
| 1.07 | CC(=O)N1CCC[C@]12CC=CCCCC1(CCCC=CCCCOC(=O)N3CC[C@@](C(=O)N[C@@H](Cc4ccccc4)C(=O)N[C@@H](Cc4csc5ccccc45)C(=O)N[C@@H](CCC(N)=O)C(N)=O)(C3)NC(=O)[C@H](Cc3ccccc3)NC(=O)[C@H](Cc3ccccc3)NC(=O)[C@H](C)NC(=O)[C@H](CCCCNC(C)C)NC(=O)[C@H]([C@@H](C)O)NC(=O)[C@H](CC(=O)O)NC1=O)NC(=O)[C@H](CC(C)(C)C)NC(=O)[C@H](CC(N)=O)NC2=O (stereo partly drawn) [I-1599, Ac-PL3-Asn-Npg-B5-Asp-Thr-iPrLys-Ala-Phe-Phe-PyrS2-Phe-BztA-Gln-NH2] |
| 4.29 | CC(=O)N1CCC[C@]12CC=CCCCC1(CCCC=CCCCOC(=O)N3CC[C@@](C(=O)N[C@@H](Cc4ccccc4)C(=O)N[C@@H](Cc4csc5ccccc45)C(=O)N[C@@H](CCC(N)=O)C(N)=O)(C3)NC(=O)[C@H](Cc3c[nH]c4ccccc34)NC(=O)[C@H](Cc3ccccc3)NC(=O)[C@H](C)NC(=O)[C@H](CCCCNC(C)C)NC(=O)[C@H]([C@@H](C)O)NC(=O)[C@H](CC(=O)O)NC1=O)NC(=O)[C@H](CC(C)(C)C)NC(=O)[C@H](CC(N)=O)NC2=O (stereo partly drawn) [I-1600, Ac-PL3-Asn-Npg-B5-Asp-Thr-iPrLys-Ala-Phe-Trp-PyrS2-Phe-BztA-Gln-NH2] |
